# In patent publication US6479435B1, “Diaryl ethers and processes for their preparation and herbicidal and desiccant compositions containing them” (ISK Americas Incorporated, priority 1997, dated 2002):
# Key:
# Assay type in all cases: in vivo
# [1] = tested on: field corn (Zea mays L., var. Dekalb 535, CORN); assay: Pre-emerge greenhouse test, crop damage rating; conditions: 14 days after application, rating scale 0-100
# In short: (§1)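 Seeds sown in sandy loam mix one day before track-sprayer application of compounds in acetone at 125–1000 g ai/ha (187 l/ha), then surface-watered to incorporate and bottom-watered. Visual rating 14 days after application on a 0–100 scale (0 = no damage, 100 = all plants dead).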
# [2] = tested on: upland rice (Oryza sp., var.Tebonnet, RICE); assay: Pre-emerge greenhouse test, crop damage rating; conditions: 14 days after application, rating scale 0-100
# In short: as §1
# [3] = tested on: common ragweed (Ambrosia artemisiifolia L., AMBEL); assay: Post-emerge greenhouse herbicide test, phytotoxicity rating; conditions: 14 days after application
# In short: (§2)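 Compounds in acetone with 0.25% v/v non-ionic surfactant were track-sprayed at 187 l/ha over plants at the 2-3 leaf stage, at 63 to 1000 g ai/ha. Pots were bottom-watered. Injury was scored visually 14 days later on a 0-100 scale, where 0 is no damage and 100 is complete plant death.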
# [4] = tested on: field corn (Zea mays L., var. Dekalb 535, CORN); assay: Post-emerge greenhouse test, crop damage rating; conditions: 14 days after application
# In short: as §2
# [5] = tested on: upland rice (Oryza sp., var.Tebonnet, RICE); assay: Post-emerge greenhouse test, crop damage rating; conditions: 14 days after application
# In short: as §2
# [6] = tested on: soybean (Glycine max L., var. Pella 86, SOY); assay: Post-emerge greenhouse test, crop damage rating; conditions: 14 days after application
# In short: as §2
# [7] = tested on: soybean (Glycine max L., var. Pella 86, SOY); assay: Pre-emerge greenhouse test, crop damage rating; conditions: 14 days after application, rating scale 0-100
# In short: as §1
# [8] = tested on: velvetleaf (Abutilon theophrasti, ABUTH); assay: Post-emerge greenhouse herbicide test, phytotoxicity rating; conditions: 14 days after application
# In short: as §2
# [9] = tested on: barnyardgrass (Echinochloa crusgalli, ECHCG); assay: as above; conditions: 14 days after application
# In short: as §2
# [10] = tested on: Johnsongrass (Sorghum halepense, SORHA); assay: as above; conditions: 14 days after application
# In short: as §2
# [11] = tested on: redroot pigweed (Amaranthus retroflexus, AMARE); assay: as above; conditions: 14 days after application
# In short: as §2
# [12] = tested on: ivyleaf morningglory (Ipomoea hederacea, IPOHE); assay: as above; conditions: 14 days after application
# In short: as §2
# [13] = tested on: lambsquarters (Chenopodium album, CHEAL); assay: as above; conditions: 14 days after application
# In short: as §2
# [14] = tested on: large crabgrass (Digitaria sanguinalis, DIGSA); assay: as above; conditions: 14 days after application
# In short: as §2
# [15] = tested on: green foxtail (Setaria viridis, SETVI); assay: as above; conditions: 14 days after application
# In short: as §2
# [16] = tested on: velvetleaf (Abutilon theophrasti, ABUTH); assay: Pre-emerge greenhouse herbicide test, phytotoxicity rating; conditions: 14 days after application, rating scale 0-100
# In short: as §1
# [17] = tested on: sicklepod (Cassia obtusifolia, CASOB); assay: as above; conditions: 14 days after application, rating scale 0-100
# In short: as §1
# [18] = tested on: barnyardgrass (Echinochloa crusgalli, ECHCG); assay: as above; conditions: 14 days after application, rating scale 0-100
# In short: as §1
# [19] = tested on: Johnsongrass (Sorghum halepense, SORHA); assay: as above; conditions: 14 days after application, rating scale 0-100
# In short: as §1
# [20] = tested on: redroot pigweed (Amaranthus retroflexus, AMARE); assay: as above; conditions: 14 days after application, rating scale 0-100
# In short: as §1
# [21] = tested on: ivyleaf morningglory (Ipomoea hederacea, IPOHE); assay: as above; conditions: 14 days after application, rating scale 0-100
# In short: as §1
# [22] = tested on: common ragweed (Ambrosia artemisiifolia L., AMBEL); assay: as above; conditions: 14 days after application, rating scale 0-100
# In short: as §1
# [23] = tested on: lambsquarters (Chenopodium album, CHEAL); assay: as above; conditions: 14 days after application, rating scale 0-100
# In short: as §1
# [24] = tested on: large crabgrass (Digitaria sanguinalis, DIGSA); assay: as above; conditions: 14 days after application, rating scale 0-100
# In short: as §1
# [25] = tested on: green foxtail (Setaria viridis, SETVI); assay: as above; conditions: 14 days after application, rating scale 0-100
# In short: as §1
smiles,measurement,setting,value
N#Cc1cccnc1Oc1cc(-n2nnn(CCCF)c2=O)c(Cl)cc1Cl [Compound 6-5],crop damage rating CORN,[1]; 125 g ai/ha,20
same,crop damage rating CORN,[1]; 500 g ai/ha,20
same,crop damage rating RICE,[2]; 125 g ai/ha,20
same,crop damage rating RICE,[2]; 500 g ai/ha,10
same,AMBEL phytotoxicity rating (0-100),[3]; 63 g al/ha,0
same,AMBEL phytotoxicity rating (0-100),[3]; 500 g al/ha,0
same,CORN crop damage rating (0-100),[4]; 63 g al/ha,0
same,CORN crop damage rating (0-100),[4]; 500 g al/ha,0
same,RICE crop damage rating (0-100),[5]; 63 g al/ha,20
same,RICE crop damage rating (0-100),[5]; 500 g al/ha,30
same,SOY crop damage rating (0-100),[6]; 63 g al/ha,20
same,SOY crop damage rating (0-100),[6]; 500 g al/ha,30
same,crop damage rating SOY,[7]; 125 g ai/ha,10
same,crop damage rating SOY,[7]; 500 g ai/ha,0
same,ABUTH phytotoxicity rating (0-100),[8]; 63 g al/ha,0
same,ABUTH phytotoxicity rating (0-100),[8]; 500 g al/ha,20
same,ECHCG phytotoxicity rating (0-100),[9]; 63 g al/ha,0
same,ECHCG phytotoxicity rating (0-100),[9]; 500 g al/ha,0
same,SORHA phytotoxicity rating (0-100),[10]; 63 g al/ha,0
same,SORHA phytotoxicity rating (0-100),[10]; 500 g al/ha,20
same,AMARE phytotoxicity rating (0-100),[11]; 63 g al/ha,40
same,AMARE phytotoxicity rating (0-100),[11]; 500 g al/ha,80
same,IPOHE phytotoxicity rating (0-100),[12]; 63 g al/ha,0
same,IPOHE phytotoxicity rating (0-100),[12]; 500 g al/ha,0
same,CHEAL phytotoxicity rating (0-100),[13]; 63 g al/ha,20
same,CHEAL phytotoxicity rating (0-100),[13]; 500 g al/ha,80
same,DIGSA phytotoxicity rating (0-100),[14]; 63 g al/ha,0
same,DIGSA phytotoxicity rating (0-100),[14]; 500 g al/ha,10
same,SETVI phytotoxicity rating (0-100),[15]; 63 g al/ha,0
same,SETVI phytotoxicity rating (0-100),[15]; 500 g al/ha,30
same,phytotoxicity rating ABUTH,[16]; 125 g ai/ha,0
same,phytotoxicity rating ABUTH,[16]; 500 g ai/ha,90
same,phytotoxicity rating CASOB,[17]; 125 g ai/ha,70
same,phytotoxicity rating CASOB,[17]; 500 g ai/ha,50
same,phytotoxicity rating ECHCG,[18]; 125 g ai/ha,0
same,phytotoxicity rating ECHCG,[18]; 500 g ai/ha,0
same,phytotoxicity rating SORHA,[19]; 125 g ai/ha,30
same,phytotoxicity rating SORHA,[19]; 500 g ai/ha,70
same,phytotoxicity rating AMARE,[20]; 125 g ai/ha,90
same,phytotoxicity rating AMARE,[20]; 500 g ai/ha,100
same,phytotoxicity rating IPOHE,[21]; 125 g ai/ha,40
same,phytotoxicity rating IPOHE,[21]; 500 g ai/ha,40
same,phytotoxicity rating AMBEL,[22]; 125 g ai/ha,0
same,phytotoxicity rating AMBEL,[22]; 500 g ai/ha,50
same,phytotoxicity rating CHEAL,[23]; 125 g ai/ha,90
same,phytotoxicity rating CHEAL,[23]; 500 g ai/ha,100
same,phytotoxicity rating DIGSA,[24]; 125 g ai/ha,30
same,phytotoxicity rating DIGSA,[24]; 500 g ai/ha,70
same,phytotoxicity rating SETVI,[25]; 125 g ai/ha,0
same,phytotoxicity rating SETVI,[25]; 500 g ai/ha,100
O=c1n(CCCF)nnn1-c1cc(Oc2ncccc2C(F)(F)F)c(Cl)cc1Cl [Compound 6-7],crop damage rating CORN,[1]; 125 g ai/ha,0
same,crop damage rating CORN,[1]; 500 g ai/ha,30
same,crop damage rating RICE,[2]; 125 g ai/ha,0
same,crop damage rating RICE,[2]; 500 g ai/ha,40
same,AMBEL phytotoxicity rating (0-100),[3]; 63 g al/ha,0
same,AMBEL phytotoxicity rating (0-100),[3]; 500 g al/ha,30
same,CORN crop damage rating (0-100),[4]; 63 g al/ha,0
same,CORN crop damage rating (0-100),[4]; 500 g al/ha,10
same,RICE crop damage rating (0-100),[5]; 63 g al/ha,0
same,RICE crop damage rating (0-100),[5]; 500 g al/ha,50
same,SOY crop damage rating (0-100),[6]; 63 g al/ha,0
same,SOY crop damage rating (0-100),[6]; 500 g al/ha,30
same,crop damage rating SOY,[7]; 125 g ai/ha,80
same,crop damage rating SOY,[7]; 500 g ai/ha,90
same,ABUTH phytotoxicity rating (0-100),[8]; 63 g al/ha,0
same,ABUTH phytotoxicity rating (0-100),[8]; 500 g al/ha,70
same,ECHCG phytotoxicity rating (0-100),[9]; 63 g al/ha,0
same,ECHCG phytotoxicity rating (0-100),[9]; 500 g al/ha,50
same,SORHA phytotoxicity rating (0-100),[10]; 63 g al/ha,0
same,SORHA phytotoxicity rating (0-100),[10]; 500 g al/ha,30
same,AMARE phytotoxicity rating (0-100),[11]; 63 g al/ha,70
same,AMARE phytotoxicity rating (0-100),[11]; 500 g al/ha,80
same,IPOHE phytotoxicity rating (0-100),[12]; 63 g al/ha,0
same,IPOHE phytotoxicity rating (0-100),[12]; 500 g al/ha,50
same,CHEAL phytotoxicity rating (0-100),[13]; 63 g al/ha,50
same,CHEAL phytotoxicity rating (0-100),[13]; 500 g al/ha,80
same,DIGSA phytotoxicity rating (0-100),[14]; 63 g al/ha,0
same,DIGSA phytotoxicity rating (0-100),[14]; 500 g al/ha,10
same,SETVI phytotoxicity rating (0-100),[15]; 63 g al/ha,20
same,SETVI phytotoxicity rating (0-100),[15]; 500 g al/ha,30
same,phytotoxicity rating ABUTH,[16]; 125 g ai/ha,0
same,phytotoxicity rating ABUTH,[16]; 500 g ai/ha,20
same,phytotoxicity rating CASOB,[17]; 125 g ai/ha,0
same,phytotoxicity rating CASOB,[17]; 500 g ai/ha,60
same,phytotoxicity rating ECHCG,[18]; 125 g ai/ha,0
same,phytotoxicity rating ECHCG,[18]; 500 g ai/ha,50
same,phytotoxicity rating SORHA,[19]; 125 g ai/ha,20
same,phytotoxicity rating SORHA,[19]; 500 g ai/ha,40
same,phytotoxicity rating AMARE,[20]; 500 g ai/ha,100
same,phytotoxicity rating IPOHE,[21]; 125 g ai/ha,0
same,phytotoxicity rating IPOHE,[21]; 500 g ai/ha,30
same,phytotoxicity rating AMBEL,[22]; 125 g ai/ha,30
same,phytotoxicity rating AMBEL,[22]; 500 g ai/ha,0
same,phytotoxicity rating CHEAL,[23]; 125 g ai/ha,80
same,phytotoxicity rating CHEAL,[23]; 500 g ai/ha,90
same,phytotoxicity rating DIGSA,[24]; 125 g ai/ha,40
same,phytotoxicity rating DIGSA,[24]; 500 g ai/ha,70
same,phytotoxicity rating SETVI,[25]; 125 g ai/ha,80
same,phytotoxicity rating SETVI,[25]; 500 g ai/ha,100
